In experiment [1] the target is T1, angiotensin II type 1 receptor (Oryctolagus cuniculus, UniProt P34976).
T1 construct: By using a specimen of isolated rabbit blood vessels; from tissue; host or cells: rabbit (New Zealand White) thoracic aorta ring
T1 sequence (P34976 1-359): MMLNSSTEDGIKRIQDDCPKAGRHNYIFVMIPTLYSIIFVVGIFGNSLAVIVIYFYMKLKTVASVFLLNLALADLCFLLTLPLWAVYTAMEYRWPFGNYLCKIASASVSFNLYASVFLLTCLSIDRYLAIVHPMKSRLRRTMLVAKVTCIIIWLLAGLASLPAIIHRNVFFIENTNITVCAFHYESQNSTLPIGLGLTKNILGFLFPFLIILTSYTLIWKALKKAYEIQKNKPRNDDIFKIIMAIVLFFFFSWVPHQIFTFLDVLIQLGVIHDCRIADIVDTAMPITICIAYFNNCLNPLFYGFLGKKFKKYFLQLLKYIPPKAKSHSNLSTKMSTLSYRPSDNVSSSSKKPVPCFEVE
Put plainly: Angiotensin II antagonistic activity in isolated rabbit blood vessels (thoracic aorta ring contraction). The conditions noted are these: angiotensin II (10 nM)-induced contraction. On the procedure:
By using a specimen of isolated rabbit blood vessels, antagonistic activity of the compounds of the invention against angiotensin II type 1 receptor was estimated from a dose-response curve of angiotensin II-induced blood vessel contraction.
During the measurement, the inside temperature of the magnus bath was maintained at 37° C. and the bath was continuously ventilated with a sufficient amount of mixed gas (95% O2 and 5% CO2). The angiotensin II-induced contraction was converted into a relative value (%) that is based on the angiotensin II (10 nM)-induced contraction in the absence of the compounds of each example. From the concentration-response curve obtained therefrom, 50% inhibition concentration (IC50 value) was calculated by using SAS Preclinical Package Ver5.0 (trade name, manufactured by SAS institute Japan Co., Tokyo, Japan), which is a statistical analysis program.

For experiment [2], the target named is T2, human PPARγ2 (Homo sapiens, UniProt P37231).
T2 construct: the amino acids 182 to 505 of human PPARγ2; expressed in transfected cells; host or cells: COS7 cells (African green monkey kidney)
T2 sequence (P37231 182-505): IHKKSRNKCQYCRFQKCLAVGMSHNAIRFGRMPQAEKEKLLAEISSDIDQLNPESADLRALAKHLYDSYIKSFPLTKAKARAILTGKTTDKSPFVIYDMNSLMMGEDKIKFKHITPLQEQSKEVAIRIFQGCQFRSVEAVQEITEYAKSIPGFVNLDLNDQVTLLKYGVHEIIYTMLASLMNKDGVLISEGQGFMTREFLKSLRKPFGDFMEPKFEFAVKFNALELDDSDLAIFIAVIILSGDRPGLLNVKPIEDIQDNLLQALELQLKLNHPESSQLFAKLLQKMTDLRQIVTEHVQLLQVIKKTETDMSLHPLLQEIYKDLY
Put plainly: PPARγ activation activity, Gal4-PPARγ2 LBD luciferase transfection assay using COS7 cells. It is filed as cell-based. The note with it: for EC50: 16 hours, luciferase activity relative to rosiglitazone = 100%; for Emax: COS-7, 16 h, maximum activity strength relative to the maximum activity of rosiglitazone, read-out: % MAX vs Rosiglitazone. On the procedure: The agonistic activity of the compounds of the invention on PPARγ was measured based on the transfection assay using COS7 cells (DS Pharma Biomedical Co., Ltd., Osaka, Japan), which are the cell line derived from the kidney of the African green monkey. COS7 cells were cultured under 5% CO2 concentration, and DMEM medium containing 10% fetal bovine serum, glutamic acid, and antibiotics was used as a medium.
As an expression vector, a chimera in which DNA binding domain of Gal4, which is a yeast transcription factor, and ligand binding domain of human PPARγ2 are fused, i.e., a fused product between the amino acids 1 to 147 of Gal4 transcription factor and the amino acids 182 to 505 of human PPARγ2, was used. Furthermore, as a reporter vector, a firefly luciferase containing five copies of Gal4 recognition sequence in the promoter region was used. Plasmid transfection to the cells was performed according to a method which uses jetPEI (trade name, manufactured by Funakoshi Co., Ltd., Tokyo, Japan). Furthermore, β-galactosidase expression vector was employed as an internal standard.
After the transfection of the cells, the medium was replaced with a DMEM medium (containing 1% serum) added with the compound, and the cells were further cultured for 16 hours. After that, the luciferase activity and β-galactosidase activity in the cell lysis solution were measured.
For the present test, dimethyl sulfoxide (DMSO) was used for dissolution and dilution of the test compounds, and during the cell treatment, the DMSO concentration in DMEM medium (containing 1% serum) was adjusted to 0.1%. As a positive compound, rosiglitazone (trade name, manufactured by ALEXIS Corporation, Switzerland) was used. The luciferase activity (%) of the test compounds (1 to 30 μmol/L) was calculated when the luciferase activity of rosiglitazone (3 to 10 μmol/L) is 100% and the luciferase activity in the absence of the test compound is 0%. The 50% effective concentration of the test compound (EC50, 50% effect concentration) was calculated by using SAS Preclinical Package Ver5.0 (trade name, manufactured by SAS institute Japan Co., Tokyo, Japan), which is a statistical analysis program.

The target in experiment [3] is T2, human PPARγ2. The experiment is described as above. The conditions noted are these: maximum activity relative to rosiglitazone. It is filed as cell-based.

SMILES strings stand for the structures. Where two headings read alike, the source gives them in different places.

For `CCCCc1nc(C)n(-c2ncc(OCC)cn2)c(=O)c1Cc1cc(CCC)c(OC(C(=O)O)c2ccccc2)c(CCC)c1` (stereo not drawn) [Example 20], in experiment [1], the IC50 – broadly, the concentration that inhibits the measured activity by half – came out at 0.115 µM. In addition, at human PPARγ2 [2] (COS7 cells, read-out: EC50), the EC50 (in general, the concentration giving half of the maximal effect) was found to be 2.59 µM. For the same molecule, the Emax at human PPARγ2 [2] was determined as 58.6%.
Molecule `CCCCc1nc(C)n(-c2ncc(OC)cn2)c(=O)c1Cc1cc(CCC)c(OC(C(=O)O)c2ccccc2)c(CCC)c1` (stereo not drawn) [Example 15] yielded an IC50 in experiment [1] of 0.092 µM. For the same molecule, the “maximum activity compared with that of termisartan” value (from here on “maximum activity compared with that”) on human PPARγ2 [3] is reported as “equal to or more than that of termisartan”. In addition, the EC50 at human PPARγ2 [2] (COS7 cells, read-out: EC50) was found to be 2.71 µM. In addition, the Emax on human PPARγ2 [2] stood at 47.2%.
As to `CCCCc1nc(C)n(Cc2ccccc2)c(=O)c1Cc1cc(CCC)c(OC(C(=O)O)c2ccccc2)c(CCC)c1` (stereo not drawn) [Example 28, 2-[4-{(1-benzyl-4-butyl-2-methyl-6-oxo-1,6-dihydropyrimidin-5-yl)methyl}-2,6-dipropylphenoxy]-2-phenylacetic acid], in experiment [1], the IC50 was found to be 0.724 µM. Also, the EC50 on human PPARγ2 [2] (COS7 cells, read-out: EC50) is 0.85 µM. Besides, the Emax on human PPARγ2 [2] came to 21.3%.
On to `CCCCc1nc(C)n(-c2ccccn2)c(=O)c1Cc1cc(CCC)c(OC(C(=O)O)c2ccc(Cl)cc2)c(CCC)c1` (stereo not drawn) [Example 9], for which the “maximum activity compared with that” value on human PPARγ2 [3] was “equal to or more than that of termisartan”. At human PPARγ2 [2] (COS7 cells, read-out: EC50), the EC50 came to 0.54 µM. Moreover, on human PPARγ2 [2], the Emax was determined as 47%.
Molecule `CCCc1nc2c(C)cc(-c3nc4ccccc4n3C)cc2n1Cc1ccc(-c2ccccc2C(=O)O)cc1` [telmisartan, reference compound] gave an IC50 in experiment [1] of 0.025 µM. In addition, the Emax at human PPARγ2 [2] fell in the range of 30 to 50%. The same molecule returned an EC50 at human PPARγ2 [2] (EC50, COS7 cells) of 1 to 5 µM.
With `CCCCc1nc(C)n(-c2ccc(OCc3ccccc3)cc2)c(=O)c1Cc1cc(CCC)c(OC(C(=O)O)c2ccccc2)c(CCC)c1` (stereo not drawn) [Example 12, 2-[4-[[1-{4-(benzyloxy)phenyl}-4-butyl-2-methyl-6-oxo-1,6-dihydropyrimidin-5-yl]methyl]-2,6-dipropylphenoxy]-2-phenyla cetic acid], at human PPARγ2 [3], the “maximum activity compared with that” value is listed as “equal to or more than that of termisartan”. For the same molecule, the EC50 on human PPARγ2 [2] (COS7 cells, read-out: EC50) turned out to be 0.44 µM. Moreover, the Emax at human PPARγ2 [2] turned out to be 57.5%.
As to `CCCCc1nc(C)n(CC2CCCCC2)c(=O)c1Cc1cc(CCC)c(OC(C(=O)O)c2ccccc2)c(CCC)c1` (stereo not drawn) [Example 30, 2-[4-[(4-butyl-1-(cyclohexylmethyl)-2-methyl-6-oxo-1,6-dihydropyrimidin-5-yl}methyl]-2,6-dipropylphenoxy]-2-phenylacet ic acid], in experiment [1], the midpoint of inhibition, the IC50, lay at 0.836 µM. The EC50 on human PPARγ2 [2] (COS7 cells, read-out: EC50) stood at 0.28 µM. Besides, at human PPARγ2 [2], the Emax came to 28.5%.
With `CCCCc1nc(C)n(-c2ccc(OC(C)C)cc2)c(=O)c1Cc1cc(CCC)c(OC(C(=O)O)c2ccccc2)c(CCC)c1` (stereo not drawn) [Example 14], the “maximum activity compared with that” value at human PPARγ2 [3] was “equal to or more than that of termisartan”. The EC50 at human PPARγ2 [2] (COS7 cells, read-out: EC50) is 0.6 µM. In addition, the Emax on human PPARγ2 [2] is 63%.
As for `CCCCc1nc(C)n(-c2ncc(OC)cn2)c(=O)c1Cc1cc(CCC)c(OC(C(=O)O)c2ccccc2)c(CCC)c1` (single isomer, unassigned; (-)) [Example 16, (−)-2-[4-[{4-butyl-1-(5-methoxypyrimidin-2-yl)-2-methyl-6-oxo-1,6-dihydropyrimidin-5-yl}methyl]-2,6-dipropylphenoxy]-2-phenylacetic acid], in experiment [1], the IC50 stood at 0.058 µM. In addition, the EC50 at human PPARγ2 [2] (COS7 cells, read-out: EC50) is 1.46 µM. Also, the Emax on human PPARγ2 [2] came out at 44.4%.
On to `CCCCc1nc(C)n(CCOC)c(=O)c1Cc1cc(CCC)c(OC(C(=O)O)c2ccccc2)c(CCC)c1` (stereo not drawn) [Example 33, 2-[4-[{4-butyl-1-(2-methoxyethyl)-2-methyl-6-oxo-1,6-dihydropyrimidin-5-yl}methyl]-2,6-dipropylphenoxy]-2-phenylacetic acid], for which the IC50 in experiment [1] worked out at 0.25 µM. The EC50 at human PPARγ2 [2] (COS7 cells, read-out: EC50) was 2.67 µM.
`CCCCc1nc(C)n(-c2ccccn2)c(=O)c1Cc1cc(CCC)c(OC(C(=O)O)c2ccccc2)c(CCC)c1` (stereo not drawn) [Example 1, 2-[4-[{4-butyl-2-methyl-6-oxo-1-(pyridin-2-yl)-1,6-dihydropyrimidin-5-yl}methyl]-2,6-dipropylphenoxy]-2-phenylacetic acid] returned an IC50 in experiment [1] of 0.53 µM. In addition, on human PPARγ2 [2] (COS7 cells, read-out: EC50), the EC50 worked out at 3.07 µM. In addition, at human PPARγ2 [2], the Emax was determined as 32%.
